Experiments:
[1] = test system: Human rhinovirus sp.; experiment: Inhibition of recombinant N-terminal His-tagged HRV 3C protease expressed in Escherichia coli at 100 uM preincubated for 15 mins followed by LEVLFQGPSK substrate addition after 45 mins by reverse-phase HPLC analysis relative to control
[2] = test system: Human rhinovirus sp.; experiment: Inhibition of recombinant N-terminal His-tagged HRV 3C protease expressed in Escherichia coli at 10 uM preincubated for 15 mins followed by LEVLFQGPSK substrate addition after 45 mins by reverse-phase HPLC analysis relative to control
[3] = Inhibition of recombinant N-terminal His-tagged HRV 3C protease expressed in Escherichia coli preincubated for 15 mins followed by LEVLFQGPSK substrate addition after 45 mins by reverse-phase HPLC analysis; design: species or system Human rhinovirus sp.

| Structure (SMILES) | inhibition [1] [%] | inhibition [2] [%] | IC50 [3] [µM] |
| --- | --- | --- | --- |
| COc1cccc(NCCNC(=O)[C@@H]2OC(C)(C)O[C@H]2C(=O)Nc2nc3ccccc3s2)c1 | 99.9 | 62.2 | 8.28 |
| CC1(C)O[C@H](C(=O)Nc2nc3ccccc3s2)[C@@H](C(=O)N2CCN(c3ccccn3)CC2)O1 | 82.5 | 10.8 | > 10 |
| CC1(C)O[C@@H](C(=O)Nc2nc3ccccc3s2)[C@H](C(=O)N2CCN(c3ccccc3)CC2)O1 | 100 | 69 | 8.57 |
| CC1(C)O[C@H](C(=O)Nc2nc3ccccc3s2)[C@@H](C(=O)N2CCN(Cc3ccccc3)CC2)O1 | 56.4 | 20.8 | > 10 |
| Cc1cccc(CN2CCN(C(=O)[C@@H]3OC(C)(C)O[C@H]3C(=O)Nc3nc4ccccc4s3)CC2)c1 | 78.7 | 20.2 | > 10 |
| CC1(C)O[C@@H](C(=O)Nc2nc3ccccc3s2)[C@H](C(=O)N2CCN(c3ccccn3)CC2)O1 | 97.8 | 64.4 | 10.6 |
| CC1(C)O[C@H](C(=O)Nc2nc3ccccc3s2)[C@@H](C(=O)N2CCN(c3ccccc3C#N)CC2)O1 | 84.2 | 48.1 | > 10 |
| CC1(C)O[C@H](C(=O)Nc2nc3ccccc3s2)[C@@H](C(=O)N2CCN(c3ccccc3)CC2)O1 | 67.8 | 17.5 | > 10 |
| Cc1cccc(CN2CCN(C(=O)[C@H]3OC(C)(C)O[C@@H]3C(=O)Nc3nc4ccccc4s3)CC2)c1 | 85.3 | 34.3 | > 10 |
| CC1(C)O[C@@H](C(=O)Nc2nc3ccccc3s2)[C@H](C(=O)N2CCN(c3ccccc3C#N)CC2)O1 | 100 | 86 | 2.5 |
| COc1cccc(NCCNC(=O)[C@H]2OC(C)(C)O[C@@H]2C(=O)Nc2nc3ccccc3s2)c1 | 85.2 | 43.6 | > 10 |
| CC1(C)O[C@@H](C(=O)Nc2nc3ccccc3s2)[C@H](C(=O)N2CCN(Cc3ccccc3)CC2)O1 | 85.5 | 18.8 | > 10 |
| COc1cccc(NCCNC(=O)[C@@H]2OC(C)(C)O[C@H]2C(=O)Nc2ccc3ccccc3c2)c1 | 80.6 | 44 | > 10 |

Reference: ChEMBL document CHEMBL4043144, “Design, synthesis and evaluation of 2,2-dimethyl-1,3-dioxolane derivatives as human rhinovirus 3C protease inhibitors” (Bioorg Med Chem Lett, 2017)
